From patent publication US12077503B2, “Substituted cyclic amides and their use as herbicides” (FMC CORPORATION, priority 2015, dated 2024) come the findings set out here.

Format in all cases: in vivo
Experiment [1] has as its system rice (Oryra sativa). Nature of the experiment: Test B flooded paddy test. The conditions noted are these: Oryza sativa, Flood, 250 g ai/ha; scale of 0 to 100 where 0 is no effect and 100 is complete control; read-out: Rice plant response rating. The method in brief:
(§1)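 Percent control, visually estimated after 13–15 d in the greenhouse on a 0–100 basis, compares treated pots with untreated ones; compound was put into paddy water 3 cm above the soil when plants had two leaves.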

Experiment [2] has as its system ducksalad (Heteranthera limosa). Briefly: Test B flooded paddy test. As to conditions: Heteranthera limosa, Flood, 250 g ai/ha; scale of 0 to 100 where 0 is no effect and 100 is complete control; read-out: Ducksalad plant response rating. An outline of the steps: as §1
For experiment [3], the system named is sedge, umbrella (small-flower umbrella sedge, Cyperus difformis). Briefly: Test B flooded paddy test. The conditions noted are these: Cyperus difformis, Flood, 250 g ai/ha; scale of 0 to 100 where 0 is no effect and 100 is complete control; read-out: Sedge, Umbrella plant response rating. An outline of the steps: as §1
The test system of experiment [4] is barnyardgrass (Echinochloa crus-galli). Nature of the experiment: Test B flooded paddy test. The conditions noted are these: Echinochloa crus-galli, Flood, 250 g ai/ha; scale of 0 to 100 where 0 is no effect and 100 is complete control; read-out: Barnyardgrass plant response rating. The method in brief: as §1
In experiment [5] the test system is pigweed (Amaranthus retroflexus). Nature of the experiment: Test A preemergence. The conditions noted are these: Amaranthus retroflexus, pre-emergence, 240 h; for pest or weed control at 125 g/ha: 125 g ai/ha, 0 to 100 scale where 0 is no effect and 100 is complete control; for pest or weed control at 500 g/ha: 500 g ai/ha.
For experiment [6] the test system is unchanged. Nature of the experiment: Test A postemergence. The conditions noted are these: Amaranthus retroflexus, post-emergence, 240 h, 125 g ai/ha. An outline of the steps:
(§2)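 Visual injury, scored on a 0–100 scale relative to untreated controls, was recorded about 10 d after application. Treatments were a preemergence soil spray over planted seeds or a postemergence spray on plants at the one- to two-leaf stage, 2 to 10 cm tall, all in loam soil–sand blend in the greenhouse.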

Experiment [7] concerns blackgrass (Alopecurus myosuroides). Nature of the experiment: Test A postemergence. As to conditions: Alopecurus myosuroides, post-emergence, 240 h, 125 g ai/ha. An outline of the steps:
as §2

In experiment [8] the test system is ragweed (common ragweed, Ambrosia elatior). Nature of the experiment: Test A postemergence. The conditions noted are these: Ambrosia artemisiifolia, post-emergence, 240 h, 125 g ai/ha. An outline of the steps:
as §2

The test system of experiment [9] is Kochia (Kochia scoparia). Nature of the experiment: Test A postemergence. As to conditions: Bassia scoparia, post-emergence, 240 h, 125 g ai/ha. An outline of the steps: as §2
Experiment [10] relates to corn (Zea mays). Nature of the experiment: Test A postemergence. The conditions noted are these: Zea mays, post-emergence, 240 h, 125 g ai/ha. An outline of the steps: as §2
The test system of experiment [11] is ryegrass, Italian (Italian ryegrass, Lolium multiflorum). Nature of the experiment: Test A postemergence. The conditions noted are these: Lolium multiflorum, post-emergence, 240 h, 125 g ai/ha. The method in brief:
as §2

In experiment [12] the test system is giant foxtail (Setaria faberii). Briefly: Test A postemergence. As to conditions: Setaria faberi, post-emergence, 240 h, 125 g ai/ha. An outline of the steps:
as §2

For experiment [13], the system named is barnyardgrass (Echinochloa crus-galli). Nature of the experiment: Test A postemergence. The conditions noted are these: Echinochloa crus-galli, post-emergence, 240 h, 125 g ai/ha. An outline of the steps:
as §2

The test system of experiment [14] is Galium (catchweed bedstraw, Galium aparine). Nature of the experiment: Test A postemergence. As to conditions: Galium, post-emergence, 240 h, 125 g ai/ha. The method in brief: as §2
Experiment [15] concerns wheat (Triticum aestivum). Nature of the experiment: Test A postemergence. As to conditions: Triticum aestivum, post-emergence, 240 h, 125 g ai/ha. The method in brief: as §2
Where [16] appears, read: preemergence, read-out: Pigweed plant response rating.

Molecules are shown by their SMILES. Read-outs that look alike come from different tables or passages of the source.

Regarding `CCOc1ccc([C@H]2CN(C)C(=O)[C@@H]2C(=O)Nc2ccccc2F)cc1` [Compound 903], the pest or weed control at 250 g/ha in [1], in [2], in [3] and in [4] was 0% throughout. The pest or weed control at 125 g/ha is 0% in [5] (setting [16]); 0% in [6] (postemergence, visual injury rating after approximately 10 d, read-out: Pigweed plant response rating (0 to 100 scale, 0 no effect, 100 complete control)); 0% in [7] (postemergence, visual injury rating after approximately 10 d, read-out: Blackgrass plant response rating (0 to 100 scale, 0 no effect, 100 complete control)); 0% in experiment [8] (postemergence, visual injury rating after approximately 10 d, read-out: Ragweed plant response rating (0 to 100 scale, 0 no effect, 100 complete control)); 0% in experiment [9] (postemergence, visual injury rating after approximately 10 d, read-out: Kochia plant response rating (0 to 100 scale, 0 no effect, 100 complete control)); 0% in experiment [11] (postemergence, visual injury rating after approximately 10 d, read-out: Ryegrass, Italian plant response rating (0 to 100 scale, 0 no effect, 100 complete control)). Besides, the pest or weed control at 125 g/ha in experiment [12] (postemergence, visual injury rating after approximately 10 d, read-out: Foxtail, Giant plant response rating (0 to 100 scale, 0 no effect, 100 complete control)) was determined as 80%; in experiment [13] (postemergence, visual injury rating after approximately 10 d, read-out: Barnyardgrass plant response rating (0 to 100 scale, 0 no effect, 100 complete control)), 80%; in experiment [14] (postemergence, visual injury rating after approximately 10 d, read-out: Galium plant response rating (0 to 100 scale, 0 no effect, 100 complete control)), 10%. For the same compound, the pest or weed control at 500 g/ha in [5] (Preemergence, visual injury vs untreated controls after approximately 10 d, read-out: Pigweed plant response rating (0 to 100 scale where 0 is no effect and 100 is complete control)) came out at 0%. The plant injury at 125 g/ha in experiment [10] (postemergence, visual injury rating after approximately 10 d, read-out: Corn plant response rating (0 to 100 scale, 0 no effect, 100 complete control)) turned out to be 0%; in experiment [15] (postemergence, visual injury rating after approximately 10 d, read-out: Wheat plant response rating (0 to 100 scale, 0 no effect, 100 complete control)), 0%.

Turning to `Cc1cc([C@H]2CN(C)C(=O)[C@@H]2C(=O)Nc2cccc(F)c2F)ccc1Cl` [Compound 929], the pest or weed control at 250 g/ha in experiment [1] was determined as 0%; in [2], 60%; in experiment [3] it was 0%; in experiment [4], 40%. For the same compound, the pest or weed control at 125 g/ha in experiment [5] (setting [16]) was 20%; in experiment [6] (Postemergence, visual injury after approximately 10 d, 0 to 100 scale where 0 is no effect and 100 is complete control, read-out: Plant response rating, Pigweed) it was 20%; in experiment [7] (Postemergence, visual injury after approximately 10 d, 0 to 100 scale where 0 is no effect and 100 is complete control, read-out: Plant response rating, Blackgrass) it was 40%; in experiment [8] (Postemergence, visual injury after approximately 10 d, 0 to 100 scale where 0 is no effect and 100 is complete control, read-out: Plant response rating, Ragweed), 20%; in [9] (Postemergence, visual injury after approximately 10 d, 0 to 100 scale where 0 is no effect and 100 is complete control, read-out: Plant response rating, Kochia), 40%; in experiment [11] (Postemergence, visual injury after approximately 10 d, 0 to 100 scale where 0 is no effect and 100 is complete control, read-out: Plant response rating, Ryegrass, Italian), 50%. The pest or weed control at 125 g/ha is 90% in experiment [12] (Postemergence, visual injury after approximately 10 d, 0 to 100 scale where 0 is no effect and 100 is complete control, read-out: Plant response rating, Foxtail, Giant); 90% in [13] (Postemergence, visual injury after approximately 10 d, 0 to 100 scale where 0 is no effect and 100 is complete control, read-out: Plant response rating, Barnyardgrass); 50% in experiment [14] (Postemergence, visual injury after approximately 10 d, 0 to 100 scale where 0 is no effect and 100 is complete control, read-out: Plant response rating, Galium). The pest or weed control at 500 g/ha in experiment [5] (preemergence, visual injury rating about 10 d after treatment, 0 to 100 scale (0 no effect, 100 complete control), read-out: Pigweed plant response rating) was 50%. For the same compound, the Corn plant response rating (crop injury, 0 = no effect, 100 = complete kill) at 125 g/ha in experiment [10] (Postemergence, visual injury after approximately 10 d, 0 to 100 scale where 0 is no effect and 100 is complete control) worked out at 40%. The plant injury at 125 g/ha in [15] (Postemergence, visual injury after approximately 10 d, 0 to 100 scale where 0 is no effect and 100 is complete control, read-out: Plant response rating, Wheat) came out at 30%.
